{"source": "paper PMC10266688", "about": "(PLOS ONE, 2023)", "key": {"[1]": {"system": "proteasome (4UbFL reporter)", "experiment": "In vivo 4UbFL proteasome reporter in electroporated leg muscle, CD1 mice", "design": "species or system mouse", "experimental": "A patch of CD1 mouse leg was shaved of hair and 10 μg 4Ub-FL plasmid in 20 μL of PBS was injected into the quadriceps femoralis muscle followed immediately by injection of the 2 Needle Array to 5 mm depth encompassing the injection site and square wave EP (ElectroSquarePorator 833, BTX-2 Needle array 5mm gap, Harvard apparatus) delivered as eight pulses at 106V for 20 ms with 200 ms intervals. One day post-EP, mice were anesthetized with isoflurane, injected IP with luciferin (0.3 mg in 100 μL water) and optical imaging was performed to determine basal level luciferase expression. Images were acquired for 10 min with a Xenogen IVIS 200 (Caliper, Hopkinton, MA). Equally sized areas were analyzed using Living Image 2.20 software.\nTwo days later, luciferin was injected IP and the baseline enzymic activity of luciferase in the transduced muscle tissue was visualized as bioluminescence within this region of interest (ROI) using an IVIS imager. […] After 4h, 24h and 48h the mice were again injected with luciferin, imaged and bioluminescence was quantified (Fig 5B).\n(§1) A) ES2 cells stably transduced with the 4UbFL reporter plasmid were treated with compounds at indicated doses for 4 h. The cells were then washed, lysed and their luminescence measured by a luminometer after addition of luciferin. B) Female CD1 mice electroporated with 4UbFL plasmid in their leg muscle. After 48 h, the mice were injected with luciferin, imaged by IVIS for their basal bioluminescence and randomized into two groups of five. […] D) Up284 tissue distribution. […] Up284 levels in tissue samples were analyzed by HPLC. E) Up284 pharmacokinetics. […] Blood was collected at indicated time points thereafter and analyzed for Up284 levels by HPLC."}, "[2]": {"system": "panel of cancer cell lines", "experiment": "MTT cytotoxicity, broad panel of cancer cell lines and normal cells (Fig 1B)", "settings": "72 h"}, "[3]": {"experiment": "Plasma Protein Binding (equilibrium dialysis)", "assay_type": "in vitro ADME, mouse", "protocol": "The assay was performed in a multiple-use 96-well dialysis unit (HTD96b dialyzer). Each individual well unit consisted of 2 chambers separated by a vertically aligned dialysis membrane of predetermined pore size (MWCO 12–14 kDa). 120 μL of non-diluted plasma spiked with the compound (1 μM, final DMSO concentration 1%) was added to one chamber, and the same volume of PBS buffer pH 7.4 to the other chamber. The HTD96b dialyzer was covered with adhesive sealing film and incubated 5 h at 37°C while shaking at 100 rpm. For sample preparation, an aliquot of the contents of each chamber was mixed with the same volume of the blank opposite matrix. In order to define non-specific loss of the compound during this assay, a standard solution was created by mixing an aliquot of spiked plasma with blank buffer without dialysis. Two aliquots of the standard solution were incubated at 37°C, shaking at 100 rpm for 5 h (recovery samples). The other two aliquots were immediately diluted with acetonitrile and stored at 4°C until analysis (stability samples). All samples were diluted 5-fold with internal standard diluted in 100% methanol with subsequent plasma proteins sedimentation by centrifuging at 6000 rpm for 5 minutes. Supernatants were analyzed using LC-MS/MS. The percentage of plasma protein bound compound, recovery and stability were calculated using following equations.\nProteinbinding={(1−(arearatioinbuffer)/(arearatioinplasma)}.100%\nRecovery={(arearatioinbuffer+peakareainplasma)/arearatioinrecoverysample}.100%\nStability={arearatioinrecoverysample/arearatioinstabilitysample}.100%"}, "ES2 cells [4]": {"system": "ES2 cells", "experiment": "Seahorse assay (OCR, ECAR)"}, "[5]": {"system": "ES2-luc human ovarian tumor", "experiment": "ES2-luc xenograft model, nude mice", "assay_type": "in vivo, mouse", "settings": "10 mg/kg IP every 3 days", "experimental": "Female Nude mice were inoculated IP with 1x10^6 ES2-luc in 100 μL PBS. At day 3, mice were imaged for basal level luminescence activity with a Xenogen IVIS 200 after IP injection with luciferin (0.3 mg in 100 μL water). Mice were randomized into groups and treated IP with compounds or vehicle (25% (w/v) β-Hydroxypropylcyclodextrin in water), and imaged again on days indicated.\nBriefly mice were injected IP with ES2-luc cells, as ovarian cancer primarily spreads through the peritoneum, and it is the origin of primary peritoneal cancer. After four days, these mice were injected IP with luciferin and bioluminescence imaged by IVIS imager as a surrogate of tumor burden. […] Bioluminescent imaging was performed by IVIS 12 and 21 days later.\nA-C) Female nude mice were inoculated IP with ES2-luc cells, a human ovarian cancer line expressing luciferase. […] The IP tumor tissue and electroporated normal muscle tissue, being spatially distinct, were identified with separate regions of interest (ROI) after simultaneous imaging with IVIS."}, "[6]": {"experiment": "Plasma stability, human EDTA plasma", "assay_type": "in vitro ADME", "settings": "for % Drug Remaining, Plasma (Human EDTA): 10 μM, 37°C"}, "TC1-OVA cells": {"system": "TC1-OVA cells", "experiment": "Antigen presentation (H-2Kb/[…]) by TC1-OVA cells, flow cytometry", "assay_type": "cell-based, mouse", "settings": "0.25 μM, 12 h", "protocol": "TC1 cells stably expressing Ovalbumin (TC1-OVA) were plated (125,000 cells/well) in a 6 well plate in 2 mL RPMI complete medium.\nC) TC1-OVA cells were plated (125,000 cells/well) in a 6 well plate in 2 mL/well in complete medium."}, "SKOV3 cells": {"system": "SKOV3 cells", "experiment": "MTT cytotoxicity assay, SKOV3 cells, 72 h", "assay_type": "cell-based", "settings": "Homo sapiens, SK-OV-3; 72 h treatment"}, "ES2 cells [7]": {"system": "ES2 cells", "experiment": "Reactive oxygen species, Amplex Red/HRP", "settings": "12 h"}, "[8]": {"experiment": "Plasma stability, mouse EDTA plasma", "assay_type": "in vitro ADME", "settings": "for % Drug Remaining, Plasma (Mouse EDTA): 10 μM, 37°C"}, "[9]": {"biological_target": "T1, 42kDa cellular protein (RPN13) (Homo sapiens, UniProt Q16186)", "T1 construct": "endogenous in cells; host or cells: HeLa cell lysate", "T1 sequence (Q16186 2-407)": "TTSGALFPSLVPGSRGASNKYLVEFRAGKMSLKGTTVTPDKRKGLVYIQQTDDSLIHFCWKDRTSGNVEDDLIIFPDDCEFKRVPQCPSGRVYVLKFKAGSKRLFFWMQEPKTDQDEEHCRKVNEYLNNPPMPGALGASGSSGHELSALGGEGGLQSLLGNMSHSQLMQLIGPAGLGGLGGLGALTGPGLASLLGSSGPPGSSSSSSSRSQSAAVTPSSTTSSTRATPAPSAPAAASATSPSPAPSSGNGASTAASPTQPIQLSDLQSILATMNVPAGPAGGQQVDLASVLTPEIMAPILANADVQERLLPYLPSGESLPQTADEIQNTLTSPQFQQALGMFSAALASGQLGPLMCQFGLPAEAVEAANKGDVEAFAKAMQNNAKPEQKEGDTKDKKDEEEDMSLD", "experiment": "Competition for RA190B binding in HeLa cell lysate", "settings": "HeLa lysate pre-treated with compound (5 μM) 45 min 4°C, then RA190B (20 μM)", "experimental": "NEM (1 mM) used as positive control."}, "[10]": {"experiment": "Tissue distribution in CD1 mice, LC-MS/MS", "assay_type": "in vivo, mouse", "settings": "40 mg/kg IV", "experimental": "Tissue homogenates were prepared at a concentration of 200 mg/mL in PBS. After vortex-mixing and centrifuging for 5 min at 2700 rpm. […] Mobile phase A was water containing 0.1% formic acid, and mobile phase B was acetonitrile containing 0.1% formic acid. The gradient started with mobile phase B at 20% and was held at 20% for 0.5 min with a flow rate of 0.3 mL/min, then increased to 100% over 0.5 minutes and held for 2.0 min, and finally returned back to 20% mobile phase B and allowed to equilibrate until 4.1min. […] The lower limit of quantitation (LLOQ) in plasma was 10 ng/mL.\nas §1\nUp284 levels were analyzed in all major tissues (brain, colon, heart, kidney, liver, lung and spleen) by liquid chromatography–mass spectrometry (LC–MS/MS)."}, "[11]": {"settings": "mouse plasma, 1.0 µM, individual incubations"}}, "note": "Several values for one entry are separate records, joined by “and”; a condition that tells them apart may be missing. Equal values may be shown once."}
{"smiles": "N#Cc1ccc(/C=C2/C(=O)/C(=C/c3ccc(C#N)cc3)C23CCNCC3)cc1", "note": "[Up284]", "values": [{"measurement": "4UbFL reporter stabilization in muscle, PO", "setting": "[1]; Up284 PO once 40mg/kg vs ixazomib 10 mg/kg", "result": "better stabilized the reporter than ixazomib"}, {"measurement": "duration of enhanced 4UbFL bioluminescence", "setting": "[1]; single IP dose 40 mg/kg", "result": "> 48", "unit": "h"}, {"measurement": "4UbFL bioluminescence in leg muscle", "setting": "[1]; single IP dose 40 mg/kg, 4h, 24h and 48h", "result": "significantly enhanced bioluminescence levels"}, {"measurement": "cytotoxicity against normal cells", "setting": "[2]", "result": "relatively spared normal cells"}, {"measurement": "sensitivity of HCT116 cells regardless of Tp53 status", "setting": "[2]", "result": "similarly sensitive"}, {"measurement": "sensitivity of RPMI8226 and ANBL6 and bortezomib-resistant (-V10R) lines", "setting": "[2]", "result": "similarly very sensitive"}, {"measurement": "% of bound compound, mean", "setting": "[3]; mouse plasma, 1.0 µM", "result": 98, "unit": "%"}, {"measurement": "Stability, %", "setting": "[3]; mouse plasma, 1.0 µM, 5 h 37°C", "result": 109, "unit": "%"}, {"measurement": "% of bound compound", "setting": "[3]; [11]", "result": "98% and 97%"}, {"measurement": "Recovery, %", "setting": "[3]; [11]", "result": 101, "unit": "%"}, {"measurement": "recovery at 5 h, 1 µM", "setting": "[3]; mouse, non-diluted plasma, pH 7.4, mouse plasma, individual incubations", "result": 98, "unit": "%"}, {"measurement": "proton leakage", "setting": "ES2 cells [4]; ES2, 0.5 μM", "result": "did not impact"}, {"measurement": "oxygen consumption rate (OCR), basal and FCCP-stimulated, and ATP production", "setting": "ES2 cells [4]; ES2, 0.5 μM, 12 h", "result": "significant decrease in OCR"}, {"measurement": "extracellular acidification rate (ECAR)", "setting": "ES2 cells [4]; ES2, after 24 h treatment", "result": "trend for reduction"}, {"measurement": "ES2-luc xenograft tumor burden (bioluminescence) vs vehicle", "setting": "[5]; days 12 and 21, p = 0.0002", "result": "significantly reduced"}, {"measurement": "overall survival vs vehicle", "setting": "[5]; p = 0.005", "result": "increased overall survival"}, {"measurement": "% Drug Remaining, Plasma (Human EDTA)", "setting": "[6]; 0 min", "result": 100, "unit": "%"}, {"measurement": "% Drug Remaining, Plasma (Human EDTA)", "setting": "[6]; 30 min", "result": 100, "unit": "%"}, {"measurement": "% Drug Remaining, Plasma (Human EDTA)", "setting": "[6]; 60 min", "result": 90, "unit": "%"}, {"measurement": "degradation in human plasma", "setting": "[6]; after incubating for 1 hour", "result": "< 10", "unit": "%"}, {"measurement": "MHC class I antigen presentation (SIINFEKL on H-2Kb)", "setting": "TC1-OVA cells", "result": "enhanced MHC class I antigen presentation"}, {"measurement": "IC50", "setting": "SKOV3 cells", "result": 71, "unit": "nM"}, {"measurement": "reactive oxygen species", "setting": "ES2 cells [7]", "result": "elevated levels of reactive oxygen species"}, {"measurement": "% Drug Remaining, Plasma (Mouse EDTA)", "setting": "[8]; 0 min", "result": 100, "unit": "%"}, {"measurement": "% Drug Remaining, Plasma (Mouse EDTA)", "setting": "[8]; 30 min", "result": 84, "unit": "%"}, {"measurement": "% Drug Remaining, Plasma (Mouse EDTA)", "setting": "[8]; 60 min", "result": 94, "unit": "%"}, {"measurement": "degradation in murine plasma", "setting": "[8]; after incubating for 1 hour", "result": "< 10", "unit": "%"}, {"measurement": "competition for RA190B binding to the 42KDa cellular protein", "setting": "[9]", "result": "competed"}, {"measurement": "plasma level at 24 h", "setting": "[10]", "result": "low"}, {"measurement": "tissue levels (brain, colon, heart, kidney, liver, lung and spleen)", "setting": "[10]; 24 h", "result": "accumulated in all the tissues, particularly the lungs"}]}
